{"source": "patent US20120115896A1", "about": "“ISOGENIC HUMAN CELL LINES COMPRISING MUTATED CANCER ALLELES AND PROCESS USING THE CELL LINES” (priority 2008, published 2012)", "key": {"[1]": {"test_system": "hTERT-HME1 cells carrying KRAS (G13D) KI", "assay": "Drug assay: cell viability by ATP content (96 h), KI versus parental cells; ΔKI pharmarray analysis"}, "[2]": {"test_system": "hTERT-HME1 cells carrying EGFR (delE746-A750) KI", "assay": "Drug assay: cell viability by ATP content (CellTiter-Glo, 96 h), KI versus parental cells; ΔKI pharmarray analysis"}, "[3]": {"test_system": "hTERT-HME1 DKI cells carrying PIK3CA (H1047R) and EGFR (delE746-A750)", "assay": "Drug assay: cell viability by ATP content (96 h), DKI versus parental cells; ΔKI pharmarray analysis"}, "[4]": {"test_system": "hTERT-HME1 cells carrying PIK3CA (E545K and H1047R) KI", "assay": "Drug assay: cell viability by ATP content (96 h) and Hoechst/propidium iodide staining, KI versus parental cells; ΔKI pharmarray analysis"}, "[5]": {"test_system": "hTERT-HME1 cells carrying BRAF (V600E) KI", "assay": "Drug assay: cell viability by ATP content (96 h), KI versus parental cells; ΔKI pharmarray analysis", "conditions": "for pharmarray: differential response of BRAF mutated cells versus WT: hTERT-HME1, FIG. 5H"}}, "note": "“And” between values parts separate entries of the source, which are not always exact repeats. Equal entries are not always repeated. Where two headings read alike, the source gives them in different places."}
{"molecule": "CCCCC/C=C\\C/C=C\\C/C=C\\C/C=C\\CCCC(=O)Nc1ccc(O)cc1", "note": "[AM404]", "values": [{"measurement": "ΔKI KRAS", "setting": "[1]", "result": 0}, {"measurement": "ΔKI KRAS", "setting": "[1]; Log(M) −4.70", "result": 0}, {"measurement": "ΔKI EGFR", "setting": "[2]", "result": 0}, {"measurement": "ΔKI EGFR", "setting": "[2]; Log(M) −4.70", "result": 0}, {"measurement": "ΔKI PIK3CA + EGFR", "setting": "[3]", "result": 0}, {"measurement": "ΔKI PIK3CA + EGFR", "setting": "[3]; Log(M) −4.70", "result": 0}, {"measurement": "ΔKI PIK3CA", "setting": "[4]", "result": 0}, {"measurement": "ΔKI PIK3CA", "setting": "[4]; Log(M) −4.70", "result": 0}, {"measurement": "ΔKI BRAF", "setting": "[5]", "result": "−0.12"}, {"measurement": "ΔKI BRAF", "setting": "[5]; Log(M) −4.70", "result": "−1.68"}]}
{"molecule": "COc1cccc(-c2cc(=O)c3ccccc3o2)c1N", "note": "[PD 98059]", "values": [{"measurement": "ΔKI KRAS", "setting": "[1]; Log(M) −3.57", "result": 0}, {"measurement": "ΔKI KRAS", "setting": "[1]; Log(M) −4.05", "result": 0}, {"measurement": "ΔKI KRAS", "setting": "[1]; Log(M) −4.52", "result": 0}, {"measurement": "ΔKI EGFR", "setting": "[2]; Log(M) −3.57", "result": 0}, {"measurement": "ΔKI EGFR", "setting": "[2]; Log(M) −4.05", "result": 3.5}, {"measurement": "ΔKI EGFR", "setting": "[2]; Log(M) −4.52", "result": 0}, {"measurement": "ΔKI PIK3CA + EGFR", "setting": "[3]; Log(M) −3.57", "result": 0}, {"measurement": "ΔKI PIK3CA + EGFR", "setting": "[3]; Log(M) −4.05", "result": 0}, {"measurement": "ΔKI PIK3CA + EGFR", "setting": "[3]; Log(M) −4.52", "result": 0}, {"measurement": "ΔKI PIK3CA", "setting": "[4]; Log(M) −3.57", "result": 0}, {"measurement": "ΔKI PIK3CA", "setting": "[4]; Log(M) −4.05", "result": 0}, {"measurement": "ΔKI PIK3CA", "setting": "[4]; Log(M) −4.52", "result": 0}, {"measurement": "ΔKI BRAF", "setting": "[5]; Log(M) −3.57", "result": 0}, {"measurement": "ΔKI BRAF", "setting": "[5]; Log(M) −4.05", "result": 0}, {"measurement": "ΔKI BRAF", "setting": "[5]; Log(M) −4.52", "result": 4}]}
{"molecule": "COC(=O)C1=CC[C@@]23CC[C@@H]([C@@](C)(/C=C/C=C(\\C)C(=O)O)OC2=O)[C@@]3(OC(C)=O)CC1", "note": "[Pseudolaric Acid B]", "values": [{"measurement": "ΔKI KRAS", "setting": "[1]", "result": 0}, {"measurement": "ΔKI KRAS", "setting": "[1]; Log(M) −6.48", "result": 0}, {"measurement": "ΔKI EGFR", "setting": "[2]", "result": 0}, {"measurement": "ΔKI EGFR", "setting": "[2]; Log(M) −6.48", "result": 0}, {"measurement": "ΔKI PIK3CA + EGFR", "setting": "[3]; Log(M) −6.48", "result": 0.54}, {"measurement": "ΔKI PIK3CA", "setting": "[4]", "result": 0}, {"measurement": "ΔKI PIK3CA", "setting": "[4]; Log(M) −6.48", "result": 0}, {"measurement": "ΔKI BRAF", "setting": "[5]; Log(M) −6.48", "result": 0}]}
{"molecule": "Sunitinib Maleate", "values": [{"measurement": "ΔKI KRAS", "setting": "[1]; Log(M) −4.82", "result": 0}, {"measurement": "ΔKI KRAS", "setting": "[1]; Log(M) −5.30", "result": 0}, {"measurement": "ΔKI KRAS", "setting": "[1]; Log(M) −5.78", "result": 0}, {"measurement": "ΔKI BRAF", "setting": "[5]; Log(M) −4.82", "result": 0}, {"measurement": "ΔKI BRAF", "setting": "[5]; Log(M) −5.30", "result": 4.42}, {"measurement": "ΔKI BRAF", "setting": "[5]; Log(M) −5.78", "result": 0}]}
{"molecule": "O=C([O-])C[C@H](O)C[C@H](O)/C=C/c1c(C2CC2)nc2ccccc2c1-c1ccc(F)cc1.O=C([O-])C[C@H](O)C[C@H](O)/C=C/c1c(C2CC2)nc2ccccc2c1-c1ccc(F)cc1.[Ca+2]", "note": "[itavastatin, Itavastatin Ca]", "values": [{"measurement": "ΔKI KRAS", "setting": "[1]", "result": 0}, {"measurement": "ΔKI EGFR", "setting": "[2]", "result": 0}, {"measurement": "ΔKI PIK3CA + EGFR", "setting": "[3]", "result": 0}, {"measurement": "ΔKI PIK3CA", "setting": "[4]", "result": 0}, {"measurement": "ΔKI BRAF", "setting": "[5]", "result": 0}, {"measurement": "pharmarray: differential response of BRAF mutated cells versus WT", "setting": "[5]", "result": "more resistant"}, {"measurement": "ΔKI BRAF", "setting": "[5]; listed as OGC-072", "result": "−7.2"}]}
{"molecule": "CCCCCc1cc(O)c2c(c1)OC(C)(C)[C@@H]1CCC(C)=C[C@@H]21", "note": "[THC]", "values": [{"measurement": "ΔKI KRAS", "setting": "[1]", "result": 0}, {"measurement": "ΔKI EGFR", "setting": "[2]", "result": 0}, {"measurement": "ΔKI PIK3CA + EGFR", "setting": "[3]", "result": 0}, {"measurement": "ΔKI PIK3CA", "setting": "[4]", "result": 0}, {"measurement": "ΔKI BRAF", "setting": "[5]", "result": 0.3}, {"measurement": "ΔKI BRAF", "setting": "[5]; Log(M) −4.60", "result": 0.46}, {"measurement": "ΔKI BRAF", "setting": "[5]; listed as OGC-089", "result": 0.88}]}
{"molecule": "Tamoxifene Citrate", "values": [{"measurement": "ΔKI KRAS", "setting": "[1]", "result": 0}, {"measurement": "ΔKI KRAS", "setting": "[1]; Log(M) −4.75", "result": 0}, {"measurement": "ΔKI KRAS", "setting": "[1]; Log(M) −5.35", "result": 0}, {"measurement": "ΔKI EGFR", "setting": "[2]", "result": 0}, {"measurement": "ΔKI EGFR", "setting": "[2]; Log(M) −4.75", "result": 0}, {"measurement": "ΔKI EGFR", "setting": "[2]; Log(M) −5.35", "result": "−0.54"}, {"measurement": "ΔKI PIK3CA + EGFR", "setting": "[3]", "result": "0.96 and 0.78"}, {"measurement": "ΔKI PIK3CA + EGFR", "setting": "[3]; Log(M) −4.75", "result": 0}, {"measurement": "ΔKI PIK3CA + EGFR", "setting": "[3]; Log(M) −5.35", "result": "−0.92"}, {"measurement": "ΔKI PIK3CA", "setting": "[4]; Log(M) −4.75", "result": 0}, {"measurement": "ΔKI PIK3CA", "setting": "[4]; Log(M) −5.35", "result": 0.9}, {"measurement": "ΔKI BRAF", "setting": "[5]", "result": 0}, {"measurement": "ΔKI BRAF", "setting": "[5]; Log(M) −4.75", "result": 0}, {"measurement": "ΔKI BRAF", "setting": "[5]; Log(M) −5.35", "result": 0}]}
{"molecule": "CC/C(=C(\\c1ccc(O)cc1)c1ccc(OCCN(C)C)cc1)c1ccccc1", "note": "[Tamoxifen 4-Hydroxy-(Z)]", "values": [{"measurement": "ΔKI KRAS", "setting": "[1]", "result": 0}, {"measurement": "ΔKI BRAF", "setting": "[5]", "result": 0}]}
{"molecule": "CC(C)c1nc(N(C)S(C)(=O)=O)nc(-c2ccc(F)cc2)c1/C=C/[C@@H](O)C[C@@H](O)CC(=O)O", "note": "[rosuvastatin, Rosuvastatin Ca]", "values": [{"measurement": "pharmarray: differential response of BRAF mutated cells versus WT", "setting": "[5]", "result": "more resistant"}]}
{"molecule": "CCCn1c(C)c(C(=O)c2cccc3ccccc23)c2ccccc21", "note": "[JWH-015]", "values": [{"measurement": "ΔKI KRAS", "setting": "[1]", "result": 0}, {"measurement": "ΔKI KRAS", "setting": "[1]; Log(M) −3.55", "result": 0}, {"measurement": "ΔKI EGFR", "setting": "[2]", "result": 0}, {"measurement": "ΔKI EGFR", "setting": "[2]; Log(M) −3.55", "result": 0}, {"measurement": "ΔKI PIK3CA + EGFR", "setting": "[3]", "result": 0}, {"measurement": "ΔKI PIK3CA + EGFR", "setting": "[3]; Log(M) −3.55", "result": 0}, {"measurement": "ΔKI PIK3CA", "setting": "[4]", "result": 0}, {"measurement": "ΔKI PIK3CA", "setting": "[4]; Log(M) −3.55", "result": 0}, {"measurement": "ΔKI BRAF", "setting": "[5]", "result": 0}, {"measurement": "ΔKI BRAF", "setting": "[5]; Log(M) −3.55", "result": 0}]}
{"molecule": "C=CCNC1=C2C[C@@H](C)C[C@H](OC)[C@H](O)[C@@H](C)/C=C(\\C)[C@H](OC(N)=O)[C@@H](OC)/C=C\\C=C(/C)C(=O)NC(=CC1=O)C2=O", "note": "[17-AAG, 17-Allylamino geldanamycin]", "values": [{"measurement": "ΔKI EGFR", "setting": "[2]", "result": "−11.7"}, {"measurement": "ΔKI EGFR", "setting": "[2]; Log(M) −5.70", "result": 0}, {"measurement": "ΔKI EGFR", "setting": "[2]; Log(M) −6.70", "result": 0}, {"measurement": "pharmarray: differential response of EGFR mutated cells versus WT", "setting": "[2]; hTERT-HME1, FIG. 5B, 5E", "result": "less susceptible than their WT counterpart"}, {"measurement": "ΔKI PIK3CA + EGFR", "setting": "[3]", "result": 0}, {"measurement": "ΔKI PIK3CA + EGFR", "setting": "[3]; Log(M) −5.70", "result": 1.18}, {"measurement": "ΔKI PIK3CA + EGFR", "setting": "[3]; Log(M) −6.70", "result": 0}, {"measurement": "ΔKI PIK3CA", "setting": "[4]", "result": 0}, {"measurement": "ΔKI PIK3CA", "setting": "[4]; Log(M) −5.70", "result": 3}, {"measurement": "ΔKI PIK3CA", "setting": "[4]; Log(M) −6.70", "result": 0}, {"measurement": "ΔKI BRAF", "setting": "[5]", "result": 0}, {"measurement": "ΔKI BRAF", "setting": "[5]; Log(M) −5.70", "result": 0.08}, {"measurement": "ΔKI BRAF", "setting": "[5]; Log(M) −6.70", "result": 0}]}
{"molecule": "COc1cc2ncnc(Nc3ccc(F)c(Cl)c3)c2cc1OCCCN1CCOCC1", "note": "[gefitinib, Gefitinib]", "values": [{"measurement": "pharmarray: differential response of KRAS mutated cells versus WT", "setting": "[1]; hTERT-HME1, FIG. 5H", "result": "resistant"}, {"measurement": "pharmarray: differential response of BRAF mutated cells versus WT", "setting": "[5]", "result": "resistant"}]}
